Measurements as given in patent US12187709B2 (Genentech, Inc., priority 2021, dated 2025).
pIC50, pKd: −log10 of the molar value.

What was measured:
[1] = biological target: Cbl-b (Homo sapiens (Human), UniProt Q13191); test: Cbl-b LCK Ub TR-FRET assay (Cbl-b Lck HTRF); type: biochemical; details: for pIC50: Cbl-b LCK Ub TR-FRET, Example 121; for (fold-selectivity) Cbl-b and C-Cbl Selectivity: ratio C-cbl Lck HTRF IC50 / Cbl-b Lck HTRF IC50
Procedure, shortened: (§1)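 Signal is read once the detection mix has stood 20 min at ambient temperature. Curves are anchored by DMSO as maximum and by omission of LCK as minimum.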

[2] = biological target: c-Cbl (Homo sapiens (Human), UniProt P22681); test: C-Cbl LCK Ub TR-FRET assay (C-cbl Lck HTRF); type: biochemical
Chain of c-Cbl (P22681 47-435): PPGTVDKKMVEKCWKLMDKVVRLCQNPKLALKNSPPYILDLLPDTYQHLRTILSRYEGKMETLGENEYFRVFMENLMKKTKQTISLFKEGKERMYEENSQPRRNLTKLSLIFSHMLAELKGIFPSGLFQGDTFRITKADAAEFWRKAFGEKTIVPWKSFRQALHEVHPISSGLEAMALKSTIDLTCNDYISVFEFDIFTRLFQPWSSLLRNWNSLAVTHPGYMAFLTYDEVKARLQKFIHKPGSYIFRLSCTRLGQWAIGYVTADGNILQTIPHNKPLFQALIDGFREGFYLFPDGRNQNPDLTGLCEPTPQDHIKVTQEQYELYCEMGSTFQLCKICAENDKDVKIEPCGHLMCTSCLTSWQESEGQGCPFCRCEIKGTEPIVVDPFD
Procedure, shortened: as §1

[3] = biological target: Human Cbl-b (residues 40-426) (Homo sapiens (Human), UniProt Q13191); test: Cbl-b SPR assay; type: binding; details: for Fold of selectivity: C-cbl SPR Kd vs Cbl-b SPR Kd; for pKd: SPR, 20° C.
Chain of Human Cbl-b (residues 40-426) (Q13191 40-426): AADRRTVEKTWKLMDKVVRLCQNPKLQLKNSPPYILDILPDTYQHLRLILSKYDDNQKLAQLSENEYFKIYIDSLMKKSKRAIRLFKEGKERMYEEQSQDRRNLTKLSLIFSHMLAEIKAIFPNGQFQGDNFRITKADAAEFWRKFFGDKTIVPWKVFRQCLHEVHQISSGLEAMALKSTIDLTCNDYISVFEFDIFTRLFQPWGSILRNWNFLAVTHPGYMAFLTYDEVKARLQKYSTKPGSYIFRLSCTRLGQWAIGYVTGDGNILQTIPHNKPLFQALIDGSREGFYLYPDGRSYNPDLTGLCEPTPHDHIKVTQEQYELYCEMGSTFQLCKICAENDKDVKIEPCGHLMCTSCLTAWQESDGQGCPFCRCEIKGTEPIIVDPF
Procedure, shortened: (§2)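 Where a chaser compound was used, % compound bound was calculated as (1−(RUT/RUT0))*100 relative to a prior chaser injection and fitted to a single exponential for kd. The single cycle titration (max 500 nM) was then fitted with kd held fixed.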

[4] = biological target: c-Cbl (residues 47-435) (Homo sapiens (Human), UniProt P22681); test: c-Cbl SPR assay; type: binding; details: 20° C.
Chain of c-Cbl (residues 47-435) (P22681 47-435): as the sequence (P22681 47-435) above
Procedure, shortened: as §2

Chain of Cbl-b (Q13191 40-426): as the sequence (Q13191 40-426) above

pIC50 [1]	(fold-selectivity) Cbl-b and C-Cbl Selectivity [1]	pIC50 [2]	Fold of selectivity [3]	pKd [3]	pKd [4]	Compound
7.80	4.7x	7.12	13×	8.22	7.12	CO[C@H]1C[C@](c2cccc(N3Cc4c(cc(CNCC5(CO)CC6CC6C5)cc4C(F)(F)F)C3=O)c2)(c2nncn2C)C1 (stereo partly drawn) [Compound 509, 6-((((3-(hydroxymethyl)bicyclo[3.1.0]hexan-3-yl)methyl)amino)methyl)-2-(3-((1r,3r)-3-methoxy-1-(4-methyl-4H-1,2,4-triazol-3-yl)cyclobutyl)phenyl)-4-(trifluoromethyl)isoindolin-1-one]
7.92	4.2x	7.29	18×	8.47	7.22	CO[C@H]1C[C@](c2cccc(N3Cc4c(cc(CNCC5CC56CC6(F)F)cc4C(F)(F)F)C3=O)c2)(c2nncn2C)C1 (stereo partly drawn) [Compound 510]
7.92	5.0x	7.21	13×	8.30	7.19	CCCNCc1cc2c(c(C(F)(F)F)c1)CN(c1cccc([C@]3(c4nncn4C)C[C@H](OC)C3)c1)C2=O [Compound 511, 2-(3-((1r,3r)-3-methoxy-1-(4-methyl-4H-1,2,4-triazol-3-yl)cyclobutyl)phenyl)-6-((propylamino)methyl)-4-(trifluoromethyl)isoindolin-1-one]
